Measured values reported in patent US10517842B2, “Methods of modulating miRNA levels and compositions for use in the same” (Los Angeles Biomedical Research Institute at Harbor-UCLA …, priority 2017, dated 2019).

What was measured:
caspase 3/7 = assay: Caspase-3/7 activity assay (Apo-One) in LSMC; assay type: cell-based, human; conditions: Tranilast 200 μM, 48 hrs
Description: LSMC were cultured in 96-well plates as mentioned above and at sub-confluence were treated with 200 μM Tranilast for 48 hrs. The caspase 3/7 activity was determined using the Apo-One homogeneous caspase-3/7 assay (Promega, Madison, Wis.) after the indicated time periods according to the manufacturer's protocol. The Apo-One caspase-3/7 reagent was added in a 1:1 ratio with the medium, and the rate of caspase-3/7 activity was determined by measuring the fluorescence using a multi-plate reader (Molecular Devices, Inc., Sunnyvale, Calif.) at an excitation of 485 nm and an emission of 527 nm.

3′UTR of COL3A1 = assay: 3′UTR luciferase reporter assay in LSMC; assay type: cell-based, human; conditions: Tranilast 200 μM vs DMSO set as 1, 48 hrs before and 48 hrs after transfection, LSMC; P<0.05
Description: LSMC were seeded at 3.5×10^4 cells/well in 6-well plates and at sub-confluence were treated with Tranilast (200 μM) or DMSO as control for 48 hrs. Tranilast and DMSO-treated cells were then transfected with luciferase reporter plasmids (1 μg/well) containing 3′ UTR sequences for COL3A1 or CDK2 (GeneCopoeia, Inc., Rockville, Md.) using PureFection transfection reagent (System Biosciences, Inc., Palo Alto, Calif.). After 48 hrs of transfection Firefly and Renilla luciferase activities were measured using the Dual-Luciferase Reporter Assay System (Promega). Firefly luciferase activity was normalized to Renilla luciferase activity. The level of induction was reported as mean±SEM of three experiments and compared with a ratio in cells treated with DMSO independently set as 1.
FIG. 10A: The relative luciferase activity in LSMC treated with Tranilast (200 μM) or DMSO as control for 48 hrs prior to transfection with Renilla and Firefly luciferase reporter plasmids carrying a 3′UTR fragment of COL3A1, CDK2 or IL8 and incubated with Tranilast (200 μM) or DMSO containing medium after transfection for another 48 hrs. The relative luciferase activity is presented as the ratio of Firefly:Renilla as compared to DMSO which was independently set as 1. The results are presented as mean±SEM of at least three sets of independent experiments using LSMC isolated from 3 patients. FIG. 10B: Protein expression of COL3A1 and CDK2 was determined after transfection of anti-miR scrambled oligonucleotides (aNC) or anti-miR-29c oligonucleotides (a29c) in LSMC for 72 hrs with DMSO or Tranilast (200 μM) treatment for the last 48 hrs. GAPDH was used as loading control. The result is one representative of at least three sets of independent experiments using LSMC isolated from 3 patients. FIG. 10C: The bar graph presented the relative band densities as mean±SEM of at least three independent experiments. Inhibition of protein expression by Tranilast treatment was calculated relative to changes in corresponding DMSO controls in cells transfected with aNC or anti-miR-29c.

leiomyoma xenografts = assay: Leiomyoma xenograft mouse model (LSMC under the kidney capsule); assay type: in vivo, CB-17 SCID/beige mice; conditions: Tranilast 50 mg/kg/day i.p. daily for 3 weeks, mice
Text: We injected primary leiomyoma cells under the kidney capsule of CB-17 SCID/beige mice using a 27 g needle as previously reported (Ishikawa et al., “Progesterone is essential for maintenance and growth of uterine leiomyoma,” Endocrinology (2010) 151: 2433-2442; Ono et al, “Paracrine activation of WNT/beta-catenin pathway in uterine leiomyoma stem cells promotes tumor growth,” Proceedings of the National Academy of Sciences of the United States of America (2013) 110: 17053-17058). After two weeks we excised the xenograft, fixed the tissue, embedded it in paraffin and obtained 5 μm sections for staining. […] This animal model is used to evaluate the efficacy of Tranilast on tumor initiation, progression, histology, and expression of miR-200c and miR-29c and their respective target genes.
Freshly isolated LSMC are injected under the kidney capsule of female ovariectomized CB-17 SCID/beige mice implanted with pellet containing estradiol (0.05 mg/90 d release) and progesterone (25 mg/60 d release) as previously reported (Ishikawa et al., “Progesterone is essential for maintenance and growth of uterine leiomyoma,” Endocrinology (2010) 151: 2433-2442; Ono et al, “Paracrine activation of WNT/beta-catenin pathway in uterine leiomyoma stem cells promotes tumor growth,” Proceedings of the National Academy of Sciences of the United States of America (2013) 110: 17053-17058). For injections of leiomyoma cells, freshly isolated cells from hysterectomy specimens are suspended in rat-tail collagen (type I) solution (BD Biosciences) at 1×10^6 cells/10 μl and grafted onto kidney capsule.
To determine the effects of Tranilast on tumor initiation, immediately after subcapsular injection of cells mice (10 per group) will be treated i.p. daily for 3 weeks with vehicle (1% DMSO) or Tranilast (50 mg/kg/day) (Kim et al., “Effects of tranilast and pentoxifylline in a mouse model of chronic asthma using house dust mite antigen,” The Journal of asthma: official journal of the Association for the Care of Asthma (2009) 46: 884-894) at which point the animals are sacrificed and tumors excised, weighed and measured and subjected for further analyses detailed below.
To determine tumor progression in an additional four groups (10/group), LMSC cells are injected under the kidney capsule and tumors are allowed to develop for five weeks. Mice are then injected i.p. daily for 3 more weeks with vehicle or Tranilast (50 mg/kg/day) (Kim et al., “Effects of tranilast and pentoxifylline in a mouse model of chronic asthma using house dust mite antigen,” The Journal of asthma: official journal of the Association for the Care of Asthma (2009) 46: 884-894) at which time the animals are sacrificed and tumors excised, weighed, measured and subjected for further analysis.
For tumor analysis, portions of tumors are allocated for RNA and protein extraction, and the remainder fixed in 4% neutral-buffered formalin and embedded in paraffin (FFPE) for histologic analysis. To assess the rate of collagen deposition, 5 μm cut paraffin sections are subjected to histologic analysis and stained with Masson's Trichrome and Sirius Red (Sigma-Aldrich), and images are analyzed by Image-Pro Plus software (Media Cybernetics) as described in detail in our prior publications (Khorram et al., “Nutrient restriction in utero induces remodeling of the vascular extracellular matrix in rat offspring,” Reproductive sciences (2007) 14: 73-80; Khorram et al., “In utero undernutrition in rats induces increased vascular smooth muscle content in the offspring, American journal of obstetrics and gynecology (2007) 196: 486.e481-488). For Immunohistochemistry, the sections are de-paraffinized in xylene, and heated in 0.01 M citrate buffer for 15 min in a microwave oven. Slides are then incubated in methanol containing 0.3% hydrogen peroxide. Slides are incubated with primary antibody or control serum, washed, and followed by application of secondary antibody. The chromogen used is diaminobenzidine (DAKO). […]

Caspase 3/7 activity (caspase 3/7): without a significant effect
3′UTR activity of COL3A1 (relative luciferase activity, Firefly:Renilla) (3′UTR of COL3A1): suppressed
Structure (SMILES): COc1ccc(C=CC(=O)Nc2ccccc2C(=O)O)cc1OC [Tranilast, 2-[[3-(3,4-dimethoxyphenyl)-1-oxo-2-propenyl]amino]benzoic acid]
NF-kB signaling in xenograft (leiomyoma xenografts): inhibition
cell proliferation (Ki-67 and PCNA labeling index) (leiomyoma xenografts): reduce
leiomyoma size (leiomyoma xenografts): shrinkage
methytransferases (DNMT1) in xenograft (leiomyoma xenografts): inhibition
miR-29c expression in xenograft (leiomyoma xenografts): up-regulate
miR-200c expression in xenograft (leiomyoma xenografts): up-regulate
rate of collagen deposition (Sirius Red staining) (leiomyoma xenografts): reduce
